pIC50: −log10 of the molar value. Where two headings read alike, the source gives them in different places.
Biological target: T1, LOX (Mus musculus, UniProt P28301)
T1 construct: Full length LOX cDNA was then PCR cloned into pEGFP-N1 (Clonetech), or biosensor vector proGFP2-N1; expressed in transfected cells; host or cells: MDCK cells grown as cysts on Matrigel, G418-selected
T1 sequence (P28301 163-411): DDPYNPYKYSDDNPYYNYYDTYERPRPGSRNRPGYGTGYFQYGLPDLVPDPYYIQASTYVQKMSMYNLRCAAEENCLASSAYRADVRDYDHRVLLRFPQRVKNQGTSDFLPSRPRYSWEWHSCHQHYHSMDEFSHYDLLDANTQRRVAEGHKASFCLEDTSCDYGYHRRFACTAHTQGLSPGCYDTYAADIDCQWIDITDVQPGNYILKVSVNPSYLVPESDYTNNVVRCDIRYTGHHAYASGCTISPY
Experiment: LOX activity in cysts assay (LOX-roGFP2 biosensor, MDCK cysts)
Format: cell-based
Settings: for inhibition at 10 µM: read-out: LOX biosensor inhibition (cyst) @ 10 uM
Experimental: LOX Activity in Cysts Assay (Tang et al, 2017).
All cell lines used in this study were purchased from American Type Culture Collection (ATCC). Mycoplasma contamination was routinely monitored by PCR. Cells used were not found to be Mycoplasma positive. MDCK cell lines were cultured in Dulbecco's Modified Eagle Medium (DMEM) supplemented with 10% fetal bovine serum (FBS) and 1% Penicillin Streptomycin solution (Pen Strep). For GFP constructs transfection in MDCK cells, lipofectamine 3000 was used according to manufactures protocols. Cells were either selected with G418 (Life Technologies) at 5 mg/ml. All cell culture reagents were purchased from Life Technologies.
To produce MDCK cysts, cells were cultured on Matrigel (Corning) with 2% Matrigel supplemented in DMEM with 10% FBS. Cysts were allowed to form for 10 days before subsequent studies.
Mouse LOX cDNA was purchased from OriGene. Full length LOX cDNA was then PCR cloned into pEGFP-N1 (Clonetech), or biosensor vector proGFP2-N1 (Hanson, 2004) using the following primers, […] (forward primer) and […] (reverse primer). For the insertion into pEGFP-N1 or proGFP2-N1, NheI and XhoI restriction sites were added to forward and reverse primers accordingly. Mutant LOX constructs were made using QuickChange II site-directed mutagenesis kit (Agilent Technologies) following manufacture's protocol using LOX-GFP as template. To generate, roGFP2 versions of LOX mutant constructs, LOX mutant cDNA was transferred from pEGFP-N1 to proGFP2-N1 using NheI and XhoI.
All photomicrographs were taken with a Leica TCS SP8 X confocal system. For LOX biosensor imaging, live MDCK cysts were used. The oxidised biosensor was excited using a 405 nm laser, while the reduced biosensor was excited with a 488 nm laser. Emission of the biosensor was recorded at 500 nm˜530 nm range using sequential scans. Ratio images were generated following a published protocol {Kardash, 2011 #376}. Note, while the published protocol generates YFP/CFP ratio images, we used it to generate Oxidised/Reduced (roGFP2 ratio) ratio images. The roGFP2 ratio at the basal surface of MDCK cysts was used to indicate LOX inhibition. LOX inhibitors were added 30 min prior to imaging.
For clarity, readout for DMSO treated cysts represents 0% inhibition (no inhibition) and readout for BAPN at 1 mM is used as 100% inhibition (full inhibition).

[1] = 10 uM, MDCK cysts, inhibitor added 30 min prior to imaging, DMSO = 0%, BAPN 1 mM = 100% inhibition

| SMILES | inhibition at 10 µM [1] [%] | also measured |
| --- | --- | --- |
| CCCCc1ccc(N2C[C@H]3CN(C(=O)NCCO)C[C@@H]2C(C)(C)C3)cc1 [Example 33, (1S,5S)-6-(4-butylphenyl)-N-(2-hydroxyethyl)-9,9-dimethyl-3,6-diazabicyclo[3.2.2]nonane-3-carboxamide] | 69.3 |  |
| CC1(C)C[C@@H]2CN(C(=O)NCCO)C[C@H]1N(c1ccc(SCCO)cc1)C2 [Example 34, (1S,5S)-N-(2-Hydroxyethyl)-6-(4-((2-hydroxyethyl)thio)phenyl)-9,9-dimethyl-3,6-diazabicyclo[3.2.2]nonane-3-carboxamide] |  | inhibition at 10 µM (MDCK): 100% |
| CC1(C)C[C@@H]2CN(C(=O)NCCO)C[C@H]1N(c1ccc(Br)cc1)C2 [Example 35, (1S,5S)-6-(4-Bromophenyl)-N-(2-hydroxyethyl)-9,9-dimethyl-3,6-diazabicyclo[3.2.2]nonane-3-carboxamide] | 84.1 |  |
| CC1(C)C[C@@H]2CN(C(=O)NCCO)C[C@H]1N(c1ccc(C=O)cc1)C2 [Example 37, (1 S,5S)-6-(4-Formylphenyl)-N-(2-hydroxyethyl)-9,9-dimethyl-3,6-diazabicyclo[3.2.2]nonane-3-carboxamide] | 86 |  |
| CCOc1ccc(N2C[C@H]3CN(C4=NCCO4)C[C@@H]2C(C)(C)C3)cc1 [Example 38, 2-((1S,5S)-6-(4-ethoxyphenyl)-9,9-dimethyl-3,6-diazabicyclo[3.2.2]nonan-3-yl)-4,5-dihydrooxazole] | 59 |  |
| CCOc1ccc(N2C[C@H]3CN(Cc4ccc(Cl)cc4)C[C@@H]2C(C)(C)C3)cc1 [Example 40, (1R,5S)-3-(4-chlorobenzyl)-6-(4-ethoxyphenyl)-9,9-dimethyl-3,6-diazabicyclo[3.2.2]nonane] | 68 |  |
| C#CCN1C[C@@H]2CN(c3ccc(OCC)cc3)[C@H](C1)C(C)(C)C2 [Example 41, (1R,5S)-6-(4-ethoxyphenyl)-9,9-dimethyl-3-(prop-2-yn-1-yl)-3,6-diazabicyclo[3.2.2]nonane] | 87 |  |
| CCOc1ccc(N2C[C@H]3CN(CC4(CC#N)CC4)C[C@@H]2C(C)(C)C3)cc1 [Example 43, 2-(1-(((1R,5S)-6-(4-ethoxyphenyl)-9,9-dimethyl-3,6-diazabicyclo[3.2.2]nonan-3-yl)methyl)cyclopropyl)acetonitrile] | 59 |  |
| C#CCCCN1C[C@@H]2CN(c3ccc(OCC)cc3)[C@H](C1)C(C)(C)C2 [Example 44, (1R,5S)-6-(4-ethoxyphenyl)-9,9-dimethyl-3-(pent-4-yn-1-yl)-3,6-diazabicyclo[3.2.2]nonane] |  | inhibition at 2.5 µM (2.5 uM (stated in cell), MDCK cysts, DMSO = 0%, BAPN 1 mM = 100% inhibition, read-out: LOX biosensor inhibition (cyst) @ 2.5 uM): 66%; pIC50 (MDCK cysts, roGFP2 ratio at basal surface, read-out: LOX biosensor IC50 (cyst)): 6.51 |
| CCOc1ccc(N2C[C@H]3CN(CCCC#N)C[C@@H]2C(C)(C)C3)cc1F [Example 45, 4-((1R,5S)-6-(4-Ethoxy-3-fluorophenyl)-9,9-dimethyl-3,6-diazabicyclo[3.2.2]nonan-3-yl)butanenitrile] | 42 |  |
| CCOc1ccc(N2C[C@H]3CN(CC(O)CC#N)C[C@@H]2C(C)(C)C3)cc1 (stereo partly drawn) [Example 46, 4-((1R,5S)-6-(4-Ethoxyphenyl)-9,9-dimethyl-3,6-diazabicyclo[3.2.2]nonan-3-yl)-3-hydroxybutanenitrile] | 72 |  |
| CCOc1ccc(N2C[C@H]3CN(C4CCN(C)CC4)C[C@@H]2C(C)(C)C3)cc1 [Example 47, (1R,5S)-6-(4-ethoxyphenyl)-9,9-dimethyl-3-(1-methylpiperidin-4-yl)-3,6-diazabicyclo[3.2.2]nonane] | 90 |  |
| CCOc1ccc(N2C[C@H]3CN(CCc4cn[nH]c4)C[C@@H]2C(C)(C)C3)cc1 [Example 48, (1R,5S)-3-(2-(1H-pyrazol-4-yl)ethyl)-6-(4-ethoxyphenyl)-9,9-dimethyl-3,6-diazabicyclo[3.2.2]nonane] | 100 |  |
| CCOc1ccc(N2C[C@H]3CN(C(=O)CCC#N)C[C@@H]2C(C)(C)C3)cc1 [Example 50, 4-((1S,5S)-6-(4-Ethoxyphenyl)-9,9-dimethyl-3,6-diazabicyclo[3.2.2]nonan-3-yl)-4-oxobutanenitrile] | 57 |  |
| CCOc1ccc(N2C[C@H]3CN(C(=O)c4ccccn4)C[C@@H]2C(C)(C)C3)cc1 [Example 51, ((1S,5S)-6-(4-ethoxyphenyl)-9,9-dimethyl-3,6-diazabicyclo[3.2.2]nonan-3-yl)(pyridin-2-yl)methanone] | 75 |  |
| CCOc1ccc(N2C[C@H]3CN(C(=O)CCc4cccnc4)C[C@@H]2C(C)(C)C3)cc1 [Example 52, 1-((1S,5S)-6-(4-ethoxyphenyl)-9,9-dimethyl-3,6-diazabicyclo[3.2.2]nonan-3-yl)-3-(pyridin-3-yl)propan-1-one] | 100 |  |
| CCOc1ccc(N2C[C@H]3CN(C(=O)CNC(=N)CN)C[C@@H]2C(C)(C)C3)cc1 [Example 53, 2-amino-N-(2-((1S,5S)-6-(4-ethoxyphenyl)-9,9-dimethyl-3,6-diazabicyclo[3.2.2]nonan-3-yl)-2-oxoethyl)acetimidamide] | 100 |  |
| CCCS(=O)(=O)N1C[C@@H]2CN(c3ccc(OCC)cc3)[C@H](C1)C(C)(C)C2 [Example 54, (1S,5S)-6-(4-ethoxyphenyl)-9,9-dimethyl-3-(propylsulfonyl)-3,6-diazabicyclo[3.2.2]nonane] | 54 |  |
| CCOc1ccc(N2C[C@H]3CN(S(=O)(=O)c4ccc(F)cc4)C[C@@H]2C(C)(C)C3)cc1 [Example 55, (1S,5S)-6-(4-ethoxyphenyl)-3-((4-fluorophenyl)sulfonyl)-9,9-dimethyl-3,6-diazabicyclo[3.2.2]nonane] | 100 |  |
| CNS(=O)(=O)N1C[C@@H]2CN(c3ccc(OC)cc3)[C@H](C1)C(C)(C)C2 [Example 56, (1S,5S)-6-(4-methoxyphenyl)-N,9,9-trimethyl-3,6-diazabicyclo[3.2.2]nonane-3-sulfonamide] | 74 |  |
| CCOc1ccc(N2C[C@H]3CN(S(=O)(=O)N4CCOCC4)C[C@@H]2C(C)(C)C3)cc1 [Example 57, 4-(((1S,5S)-6-(4-ethoxyphenyl)-9,9-dimethyl-3,6-diazabicyclo[3.2.2]nonan-3-yl)sulfonyl)morpholine] | 93 |  |
| CCOc1ccc(N2C[C@H]3CN(c4ccc(NC(C)=O)cc4)C[C@@H]2C(C)(C)C3)cc1 [Example 58, N-(4-((1R,5S)-6-(4-ethoxyphenyl)-9,9-dimethyl-3,6-diazabicyclo[3.2.2]nonan-3-yl)phenyl)acetamide] | 100 |  |
| CC1(C)C[C@@H]2CN(C(=O)N3CCN(S(C)(=O)=O)CC3)C[C@H]1N(c1ccc(N3CCS(=O)(=O)CC3)cc1)C2 [Example 61, ((1S,5S)-6-(4-(1,1-dioxidothiomorpholino)phenyl)-9,9-dimethyl-3,6-diazabicyclo[3.2.2]nonan-3-yl)(4-(methylsulfonyl)piperazin-1-yl)methanone] | 79 |  |
| CC1(C)C[C@@H]2CN(C(=O)N3CCS(=O)(=O)CC3)C[C@H]1N(c1ccc3c(c1)OCCO3)C2 [Example 63, ((1 S,5S)-6-(2,3-dihydrobenzo[b][1,4]dioxin-6-yl)-9,9-dimethyl-3,6-diazabicyclo[3.2.2]nonan-3-yl)(1,1-dioxidothiomorpholino)methanone] | 100 |  |
| CC1(C)C[C@@H]2CN(C(=O)N3CCS(=O)(=O)CC3)C[C@H]1N(c1cccc(N3CCS(=O)(=O)CC3)c1)C2 [Example 64, (1,1-dioxidothiomorpholino)((1S,5S)-6-(3-(1,1-dioxidothiomorpholino)phenyl)-9,9-dimethyl-3,6-diazabicyclo[3.2.2]nonan-3-yl)methanone] | 100 |  |
| COc1cc(OC)cc(N2C[C@H]3CN(C(=O)N4CCS(=O)(=O)CC4)C[C@@H]2C(C)(C)C3)c1 [Example 65, ((1S,5S)-6-(3,5-dimethoxyphenyl)-9,9-dimethyl-3,6-diazabicyclo[3.2.2]nonan-3-yl)(1,1-dioxidothiomorpholino)methanone] | 88 |  |

From patent US12060360B2, “Lysyl oxidase inhibitors” (The Institute of Cancer Research: Royal Cancer Hospital, priority 2017, dated 2024)
